Patent US12509457B2, “Bicyclic nitrogen containing heterocycles as inhibitors of salt-induced kinase SIK2” (priority 2019, dated 2025)
Where two headings read alike, the source gives them in different places.

What was measured:
Assay type in all cases: biochemical
Src = Src (Homo sapiens, UniProt P12931); experiment: Src kinase assay, IMAP fluorescence polarization; conditions: 50 or 100 μM ATP; average; read-out: Src-AVERAGE Ki
SIK2 = SIK2 (Homo sapiens, UniProt Q9H0K1); experiment: SIK2 kinase assay, IMAP fluorescence polarization; conditions: 50 or 100 μM ATP; average; read-out: SIK2-AVERAGE Ki
Abl = Abl (Homo sapiens, UniProt P00519); experiment: Abl kinase assay, IMAP fluorescence polarization; conditions: 50 or 100 μM ATP; average; read-out: Abl-AVERAGE Ki
SIK1 = SIK1 (Homo sapiens, UniProt P57059); experiment: SIK1 kinase assay, IMAP fluorescence polarization; conditions: 50 or 100 μM ATP; average; read-out: SIK1-AVERAGE Ki
SIK3 = SIK3 (Homo sapiens, UniProt Q9Y2K2); experiment: SIK3 kinase assay, IMAP fluorescence polarization; conditions: 50 or 100 μM ATP; average; read-out: SIK3-AVERAGE Ki
EPHA2 = EPHA2 (Homo sapiens, UniProt P29317); experiment: EPHA2 kinase assay, IMAP fluorescence polarization
Sequence of EPHA2 (P29317 24-976): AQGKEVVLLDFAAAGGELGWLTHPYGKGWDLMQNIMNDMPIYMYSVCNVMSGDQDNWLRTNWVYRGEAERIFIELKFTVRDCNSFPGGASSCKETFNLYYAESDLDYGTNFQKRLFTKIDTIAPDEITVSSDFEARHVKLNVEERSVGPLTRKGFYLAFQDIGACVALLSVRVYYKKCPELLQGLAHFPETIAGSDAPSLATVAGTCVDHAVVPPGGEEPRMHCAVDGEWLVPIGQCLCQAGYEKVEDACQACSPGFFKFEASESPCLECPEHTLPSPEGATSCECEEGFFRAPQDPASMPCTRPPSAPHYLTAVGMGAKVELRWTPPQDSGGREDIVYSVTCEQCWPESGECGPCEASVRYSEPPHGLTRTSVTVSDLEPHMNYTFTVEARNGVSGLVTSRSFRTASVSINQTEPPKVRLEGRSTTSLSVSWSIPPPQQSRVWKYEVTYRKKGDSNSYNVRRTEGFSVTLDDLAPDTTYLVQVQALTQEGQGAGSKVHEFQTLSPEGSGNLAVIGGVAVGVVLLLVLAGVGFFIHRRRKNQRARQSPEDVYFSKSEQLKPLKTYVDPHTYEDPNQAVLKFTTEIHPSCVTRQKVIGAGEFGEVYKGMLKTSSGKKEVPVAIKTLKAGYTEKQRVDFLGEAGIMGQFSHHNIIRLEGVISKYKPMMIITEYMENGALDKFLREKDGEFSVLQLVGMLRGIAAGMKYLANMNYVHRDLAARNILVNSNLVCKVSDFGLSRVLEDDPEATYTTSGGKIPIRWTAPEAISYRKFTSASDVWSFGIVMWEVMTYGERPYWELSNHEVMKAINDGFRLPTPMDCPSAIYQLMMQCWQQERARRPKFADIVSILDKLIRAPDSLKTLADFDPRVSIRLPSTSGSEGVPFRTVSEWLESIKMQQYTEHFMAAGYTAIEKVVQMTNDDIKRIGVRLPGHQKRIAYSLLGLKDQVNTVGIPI

Sequence of SIK2 (Q9H0K1 whole entry): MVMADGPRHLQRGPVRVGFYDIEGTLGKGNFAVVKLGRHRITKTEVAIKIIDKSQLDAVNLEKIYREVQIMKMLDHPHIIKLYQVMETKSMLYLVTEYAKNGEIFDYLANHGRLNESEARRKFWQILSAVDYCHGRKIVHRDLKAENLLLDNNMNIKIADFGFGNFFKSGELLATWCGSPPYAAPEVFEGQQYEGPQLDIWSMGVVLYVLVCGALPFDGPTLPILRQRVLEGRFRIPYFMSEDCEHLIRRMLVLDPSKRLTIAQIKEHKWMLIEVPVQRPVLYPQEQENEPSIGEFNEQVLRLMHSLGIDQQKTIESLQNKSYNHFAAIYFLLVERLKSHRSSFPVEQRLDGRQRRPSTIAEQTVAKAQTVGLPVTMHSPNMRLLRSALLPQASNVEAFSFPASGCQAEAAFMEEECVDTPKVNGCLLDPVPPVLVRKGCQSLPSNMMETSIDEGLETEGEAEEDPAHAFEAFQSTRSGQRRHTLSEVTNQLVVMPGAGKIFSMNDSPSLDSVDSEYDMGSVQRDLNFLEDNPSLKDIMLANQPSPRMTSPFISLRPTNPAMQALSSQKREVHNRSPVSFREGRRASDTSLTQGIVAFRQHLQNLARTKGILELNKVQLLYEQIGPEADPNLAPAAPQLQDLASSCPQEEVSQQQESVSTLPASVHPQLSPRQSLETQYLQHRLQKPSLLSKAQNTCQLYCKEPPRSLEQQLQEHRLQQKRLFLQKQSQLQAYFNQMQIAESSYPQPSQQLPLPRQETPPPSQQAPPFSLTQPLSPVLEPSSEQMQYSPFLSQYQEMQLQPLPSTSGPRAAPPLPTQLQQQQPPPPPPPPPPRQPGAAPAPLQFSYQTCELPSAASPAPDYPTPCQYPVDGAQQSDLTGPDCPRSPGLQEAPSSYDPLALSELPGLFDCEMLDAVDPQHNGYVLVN
Sequence of SIK3 (Q9Y2K2 whole entry): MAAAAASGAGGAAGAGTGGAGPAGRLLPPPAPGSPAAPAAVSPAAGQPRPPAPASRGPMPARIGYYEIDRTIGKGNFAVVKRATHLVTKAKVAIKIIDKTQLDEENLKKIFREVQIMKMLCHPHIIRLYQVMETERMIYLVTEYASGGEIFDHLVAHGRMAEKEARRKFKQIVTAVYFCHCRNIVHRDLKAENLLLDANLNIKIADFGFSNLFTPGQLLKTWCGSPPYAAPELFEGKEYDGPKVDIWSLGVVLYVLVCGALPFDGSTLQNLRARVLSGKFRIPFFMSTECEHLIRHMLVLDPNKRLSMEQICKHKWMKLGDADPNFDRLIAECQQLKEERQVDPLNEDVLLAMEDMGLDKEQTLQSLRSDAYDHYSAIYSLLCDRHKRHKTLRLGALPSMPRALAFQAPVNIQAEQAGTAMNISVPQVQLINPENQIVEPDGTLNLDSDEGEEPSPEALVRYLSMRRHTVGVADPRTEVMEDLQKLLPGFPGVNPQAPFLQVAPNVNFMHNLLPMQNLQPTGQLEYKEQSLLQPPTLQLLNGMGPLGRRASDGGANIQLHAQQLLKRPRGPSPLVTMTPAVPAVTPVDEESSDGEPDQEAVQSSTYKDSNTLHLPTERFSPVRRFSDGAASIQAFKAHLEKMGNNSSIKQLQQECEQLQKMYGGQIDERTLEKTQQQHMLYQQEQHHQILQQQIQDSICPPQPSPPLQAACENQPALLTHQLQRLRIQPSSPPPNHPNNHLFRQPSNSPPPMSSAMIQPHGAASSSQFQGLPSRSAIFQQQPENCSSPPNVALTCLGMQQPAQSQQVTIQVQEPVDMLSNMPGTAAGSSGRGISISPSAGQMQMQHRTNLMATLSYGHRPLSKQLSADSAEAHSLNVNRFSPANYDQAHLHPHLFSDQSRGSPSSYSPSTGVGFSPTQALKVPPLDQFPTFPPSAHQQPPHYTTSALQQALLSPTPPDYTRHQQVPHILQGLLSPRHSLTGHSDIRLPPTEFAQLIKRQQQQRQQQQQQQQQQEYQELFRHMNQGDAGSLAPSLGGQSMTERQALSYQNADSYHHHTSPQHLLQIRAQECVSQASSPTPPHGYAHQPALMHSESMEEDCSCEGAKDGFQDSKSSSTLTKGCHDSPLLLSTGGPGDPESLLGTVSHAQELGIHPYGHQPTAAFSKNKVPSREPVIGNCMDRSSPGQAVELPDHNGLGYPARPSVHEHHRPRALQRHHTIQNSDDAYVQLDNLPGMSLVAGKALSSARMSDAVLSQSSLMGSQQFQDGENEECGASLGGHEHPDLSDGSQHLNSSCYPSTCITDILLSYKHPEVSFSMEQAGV
Sequence of SIK1 (P57059 whole entry): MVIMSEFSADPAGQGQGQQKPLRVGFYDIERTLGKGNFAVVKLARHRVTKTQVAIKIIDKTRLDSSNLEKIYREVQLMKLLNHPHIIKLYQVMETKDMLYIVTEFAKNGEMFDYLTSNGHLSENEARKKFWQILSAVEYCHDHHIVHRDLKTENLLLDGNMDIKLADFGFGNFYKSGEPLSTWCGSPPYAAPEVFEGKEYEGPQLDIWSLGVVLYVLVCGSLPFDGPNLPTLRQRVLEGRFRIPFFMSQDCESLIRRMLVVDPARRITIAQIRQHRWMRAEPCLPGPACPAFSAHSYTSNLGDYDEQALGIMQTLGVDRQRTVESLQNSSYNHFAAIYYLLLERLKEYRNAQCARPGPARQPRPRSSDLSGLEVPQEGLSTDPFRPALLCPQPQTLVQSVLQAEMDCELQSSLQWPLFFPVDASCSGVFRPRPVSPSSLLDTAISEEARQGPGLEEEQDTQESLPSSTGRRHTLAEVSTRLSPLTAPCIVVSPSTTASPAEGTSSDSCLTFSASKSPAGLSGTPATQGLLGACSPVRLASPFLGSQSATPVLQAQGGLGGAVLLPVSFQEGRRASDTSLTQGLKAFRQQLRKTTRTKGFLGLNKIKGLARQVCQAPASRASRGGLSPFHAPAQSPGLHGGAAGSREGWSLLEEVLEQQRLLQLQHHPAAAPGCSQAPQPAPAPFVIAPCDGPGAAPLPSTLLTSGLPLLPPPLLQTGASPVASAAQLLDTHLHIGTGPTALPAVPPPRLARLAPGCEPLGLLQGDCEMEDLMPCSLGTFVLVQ
Sequence of Abl (P00519 whole entry): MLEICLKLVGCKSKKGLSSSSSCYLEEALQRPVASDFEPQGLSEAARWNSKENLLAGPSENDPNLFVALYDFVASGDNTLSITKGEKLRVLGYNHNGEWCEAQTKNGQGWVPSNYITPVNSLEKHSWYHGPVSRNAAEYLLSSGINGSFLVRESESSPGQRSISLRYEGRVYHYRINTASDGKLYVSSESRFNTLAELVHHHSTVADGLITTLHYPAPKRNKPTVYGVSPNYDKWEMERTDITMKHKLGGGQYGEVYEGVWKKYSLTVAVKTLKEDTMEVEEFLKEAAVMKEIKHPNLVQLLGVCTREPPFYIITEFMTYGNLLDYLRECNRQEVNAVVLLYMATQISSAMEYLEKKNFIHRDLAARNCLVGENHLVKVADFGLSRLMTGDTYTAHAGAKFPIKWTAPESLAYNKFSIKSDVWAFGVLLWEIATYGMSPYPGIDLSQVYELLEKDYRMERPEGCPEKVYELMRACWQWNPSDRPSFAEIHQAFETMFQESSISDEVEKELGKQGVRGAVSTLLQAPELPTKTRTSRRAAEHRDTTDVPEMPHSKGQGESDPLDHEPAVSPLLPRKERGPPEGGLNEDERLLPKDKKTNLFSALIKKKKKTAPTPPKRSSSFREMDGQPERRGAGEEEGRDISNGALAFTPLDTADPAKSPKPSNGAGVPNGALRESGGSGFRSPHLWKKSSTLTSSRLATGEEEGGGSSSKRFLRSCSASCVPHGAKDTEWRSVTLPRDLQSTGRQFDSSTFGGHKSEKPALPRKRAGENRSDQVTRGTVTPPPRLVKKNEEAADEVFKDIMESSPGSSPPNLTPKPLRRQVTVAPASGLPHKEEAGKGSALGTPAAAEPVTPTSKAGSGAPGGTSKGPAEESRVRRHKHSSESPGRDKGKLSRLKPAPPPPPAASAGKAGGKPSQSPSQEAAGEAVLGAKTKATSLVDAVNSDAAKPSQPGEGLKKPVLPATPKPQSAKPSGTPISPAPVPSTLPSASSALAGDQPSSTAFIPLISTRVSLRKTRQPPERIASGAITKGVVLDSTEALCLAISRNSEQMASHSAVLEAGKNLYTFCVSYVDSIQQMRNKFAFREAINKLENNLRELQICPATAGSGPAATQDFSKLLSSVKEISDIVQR

Compound | Ki (Src) [nM] | Ki (SIK2) [nM] | Ki (Abl) [nM] | Ki (SIK1) [nM] | Ki (SIK3) [nM] | Ki (EPHA2; 50 or 100 μM ATP, average) [nM] | Ki (EPHA2) [nM]
Cc1cccc(F)c1N1Cc2cnc(N)cc2N([C@H]2CCC[C@@H](N(C)C)C2)C1=O (relative stereo) [Example 43, 7-amino-1-[cis-3-(dimethylamino)cyclohexyl]-3-(2-fluoro-6-methyl-phenyl)-4H-pyrido[4,3-d]pyrimidin-2-one] | 71.3 | 1.57 | 25.3 | 1.96 | 13.4 | 39.3 | 
Cc1cccc(F)c1N1Cc2cnc(N)cc2N(CC2CCNCC2)C1=O [Example 2, 7-amino-3-(2-fluoro-6-methyl-phenyl)-1-(4-piperidylmethyl)-4H-pyrido[4,3-d]pyrimidin-2-one] | 23.1 | 0.163 | 2.34 | 0.94 | 0.55 | 38.7 | 
Cc1cccc(F)c1N1Cc2cnc(N)cc2N(C2CNC2)C1=O [Example 4, 7-amino-1-(azetidin-3-yl)-3-(2-fluoro-6-methyl-phenyl)-4H-pyrido[4,3-d]pyrimidin-2-one] | 547 | 4.08 | 187 | 7.92 | 35.3 |  | 221
Cc1cccc(F)c1N1Cc2cnc(N)cc2N(C2CN(C)C2)C1=O [Example 5, 7-amino-3-(2-fluoro-6-methyl-phenyl)-1-(1-methylazetidin-3-yl)-4H-pyrido[4,3-d]pyrimidin-2-one] | > 1000 | 13.6 | > 1000 | 56 | 124 | > 1000 | 
Cc1cccc(Cl)c1N1Cc2cnc(N)cc2N(C2CNC2)C1=O [Example 8, 7-amino-1-(azetidin-3-yl)-3-(2-chloro-6-methyl-phenyl)-4H-pyrido[4,3-d]pyrimidin-2-one] | 158 | 4.49 | > 1000 | 7.76 | 45.6 |  | 149
Cc1cccc(Cl)c1N1Cc2cnc(N)cc2N(C2CN(C)C2)C1=O [Example 9, 7-amino-3-(2-chloro-6-methyl-phenyl)-1-(1-methylazetidin-3-yl)-4H-pyrido[4,3-d]pyrimidin-2-one] | > 1000 | 17.9 | > 1000 | 29.2 | 145 |  | 175
CNc1cc2c(cn1)CN(c1c(C)cccc1F)C(=O)N2C1CN(C)C1 [Example 10, 3-(2-Fluoro-6-methyl-phenyl)-7-(methylamino)-1-(1-methylazetidin-3-yl)-4H-pyrido[4,3-d]pyrimidin-2-one] | > 1000 | 14.8 | > 1000 | 66.9 | 177 | > 1000 | 

The remaining lines, values ahead:

Ki (Src) [nM] | Ki (SIK2) [nM] | Ki (Abl) [nM] | Ki (SIK1) [nM] | Ki (SIK3) [nM] | Ki (EPHA2; 50 or 100 μM ATP, average) [nM] | Ki (EPHA2) [nM] | Compound
> 10000 | 123 |  | 263 | 1370 | 6410 |  | Cc1cccc(F)c1N1Cc2cnc(N(C)C)cc2N([C@H]2CCC[C@@H](N(C)C)C2)C1=O (relative stereo) [Example 44, 7-(dimethylamino)-1-[cis-3-(dimethylamino)cyclohexyl]-3-(2-fluoro-6-methyl-phenyl)-4H-pyrido[4,3-d]pyrimidin-2-one]
33 | 0.364 | 14.3 | 1.25 | 4.71 | 7.16 |  | Cc1cccc(F)c1N1Cc2cnc(N)cc2N([C@H]2CCC[C@H](N)C2)C1=O (relative stereo) [Example 55, 7-amino-1-[(trans)-3-aminocyclohexyl]-3-(2-fluoro-6-methyl-phenyl)-4H-pyrido[4,3-d]pyrimidin-2-one]
18.9 | 0.19 | 3.28 | 0.604 | 1.46 | 42.3 |  | Cc1cccc(F)c1N1Cc2cnc(N)cc2N([C@H]2CCC[C@@H](N)C2)C1=O (relative stereo) [Example 56, 7-amino-1-[(cis)-3-aminocyclohexyl]-3-(2-fluoro-6-methyl-phenyl)-4H-pyrido[4,3-d]pyrimidin-2-one]
